Values quoted from earlier work as cited in patent US4146613A, “Oral anti-diabetic drug composition” (THERA Gesellschaft fur Patentverwertung mbH, priority 1976, dated 1979).

System: blood sugar

## kallikrein
After administering for several days, for example after three days
  persistence of blood sugar lowering effect: the effect would diminish or disappear
Also if applied orally, Frey et al 1932
  blood sugar lowering: lower slightly the blood sugar
